Measurements published in patent publication US9062041B2 (Bayer Intellectual Property GmbH, priority 2011, dated 2015).

Key:
Format in all cases: cell-based
[1] = target: EP2 subtype of the human PGE2 receptor (Homo sapiens, UniProt P43116); test: cAMP antagonism test on the human EP2 receptor (HTRF cAMP detection); conditions: hEP2 receptor, read-out: Antagonism hEP2 IC50
Summary of the method: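 Read-out is a competitive HTRF for cAMP: lysate cAMP displaces cAMP-d2 from Eu cryptate-labelled antibody, and antagonism raises the 665/620 nm ratio. Compound (0.8 nM–16.5 μM) added to EP2 cells 20 min at RT before 60 min PGE2 challenge (3× stock 1.5 nM) with IBMX, followed by 20 min lysis.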

[2] = target: EP4 subtype of the human PGE2 receptor (Homo sapiens, UniProt P35408); test: cAMP antagonism test on the human EP4 receptor (HTRF cAMP detection); conditions: selectivity towards hEP4, IC50 measured by cAMP antagonism test
EP4 subtype of the human PGE2 receptor, sequence (P35408 whole entry): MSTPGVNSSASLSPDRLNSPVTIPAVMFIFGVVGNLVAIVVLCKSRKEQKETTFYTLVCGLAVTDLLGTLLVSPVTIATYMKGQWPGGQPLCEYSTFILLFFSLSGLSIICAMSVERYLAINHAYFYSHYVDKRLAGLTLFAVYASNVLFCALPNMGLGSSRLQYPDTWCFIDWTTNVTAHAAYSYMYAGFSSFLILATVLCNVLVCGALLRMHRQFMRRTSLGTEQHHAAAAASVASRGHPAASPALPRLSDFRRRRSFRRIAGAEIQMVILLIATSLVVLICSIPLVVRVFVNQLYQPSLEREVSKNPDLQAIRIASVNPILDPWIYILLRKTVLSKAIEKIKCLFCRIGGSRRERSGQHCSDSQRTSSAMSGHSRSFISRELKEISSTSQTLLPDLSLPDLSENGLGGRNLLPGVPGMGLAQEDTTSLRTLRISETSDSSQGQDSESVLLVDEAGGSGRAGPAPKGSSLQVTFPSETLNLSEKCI
Summary of the method: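 Competitive HTRF cAMP read-out (cAMP-d2 vs Eu-cryptate anti-cAMP antibody, 665/620 nm ratio) on lysed human EP4 cells. Compound (0.8 nM–16.5 μM) applied 20 min at RT before 60 min PGE2 challenge (3× solution 0.3 nM, IBMX present); 20 min lysis precedes reading.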

human PGD receptor = target: T1, human PGD receptor (Homo sapiens, UniProt Q13258); test: cAMP antagonism test on the human prostaglandin D receptor (HTRF cAMP detection); conditions: selectivity towards hDP, IC50 measured by cAMP antagonism test
T1 sequence (Q13258 1-359): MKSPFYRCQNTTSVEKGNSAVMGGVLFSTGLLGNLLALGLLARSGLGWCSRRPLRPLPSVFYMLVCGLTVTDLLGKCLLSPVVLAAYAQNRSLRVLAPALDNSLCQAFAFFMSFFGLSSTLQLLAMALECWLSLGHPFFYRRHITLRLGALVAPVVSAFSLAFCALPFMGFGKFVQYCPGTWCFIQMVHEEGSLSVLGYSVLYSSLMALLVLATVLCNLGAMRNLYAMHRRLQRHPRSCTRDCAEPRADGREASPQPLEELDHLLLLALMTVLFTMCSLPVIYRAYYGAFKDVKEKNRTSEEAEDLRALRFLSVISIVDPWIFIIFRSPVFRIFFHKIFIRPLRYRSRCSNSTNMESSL
Summary of the method: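 HTRF competition read-out (665/620 nm ratio ×10000), where higher FRET means less cAMP, i.e. antagonism. Compounds (0.8 nM–16.5 μM) were preincubated 20 min at RT with cells and cAMP-d2, PGD2 (3× solution, 6 nM) in IBMX-containing PBS added for 30 min at RT, then cells lysed 20 min.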

EP2 subtype of the human PGE2 receptor, sequence (P43116 whole entry): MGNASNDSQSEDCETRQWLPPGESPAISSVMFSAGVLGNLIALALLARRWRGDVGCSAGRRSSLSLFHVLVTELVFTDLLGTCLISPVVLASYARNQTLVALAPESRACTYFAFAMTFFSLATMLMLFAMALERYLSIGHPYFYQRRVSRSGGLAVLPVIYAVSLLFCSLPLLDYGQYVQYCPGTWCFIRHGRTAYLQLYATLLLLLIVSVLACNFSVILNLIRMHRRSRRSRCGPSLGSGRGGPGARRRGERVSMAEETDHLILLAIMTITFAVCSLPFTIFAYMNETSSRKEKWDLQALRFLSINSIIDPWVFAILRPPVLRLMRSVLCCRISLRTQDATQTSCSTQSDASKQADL

SMILES | IC50 [1] [nM] | Selectivity hEP2/hEP4 [2] | Selectivity hEP2/hDP (human PGD receptor)
Cc1c(C(=O)NCCOCC2CC2)ccc2nn(CC3CCN(C(=O)c4ccc(Cl)cc4)CC3)cc12 [Example 84, 2-{[1-(4-chlorobenzoyl)piperidin-4-yl]methyl}-N-[2-(cyclopropylmethoxy)ethyl]-4-methyl-2H-indazol-5-carboxamide] | 19.2 | xxx (xxx > 100) | xxx (xxx > 100)
COCCNC(=O)c1ccc2nn(CC3CCN(C(=O)c4ccc(N5CCOCC5)cc4)CC3)cc2c1C [Example 4, N-(2-methoxyethyl)-4-methyl-2-{[1-(4-morpholinobenzoyl)piperidin-4-yl]methyl}-2H-indazol-5-carboxamide] | 68.1 | xxx (xxx > 100) | xxx (xxx > 100)
COCCNC(=O)c1ccc2nn(CC3CN(C(=O)c4ccc(-c5ccc(F)cc5)cc4)C3)cc2c1C [Example 158, 2-({1-[(4′-fluorobiphenyl-4-yl)carbonyl]azetidin-3-yl}methyl)-N-(2-methoxy-ethyl)-4-methyl-2H-indazol-5-carboxamide] | 6.21 | xxx (xxx > 100) | xxx (xxx > 100)
Cc1ncc(-c2ccc(C(=O)N3CCC(Cn4cc5c(C)c(C(=O)NCC(F)(F)F)ccc5n4)CC3)cc2)cn1 [Example 327, 4-methyl-2-({1-[4-(2-methylpyrimidin-5-yl)benzoyl]piperidin-4-yl}methyl)-N-(2,2,2-trifluoroethyl)-2H-indazol-5-carboxamide] | 1210 | xx (xx: 10-100) | xx (xx: 10-100)
COCCNC(=O)c1ccc2nn(CC3CCN(C(=O)c4nc5ccccc5n4C)CC3)cc2c1C [Example 338, N-(2-methoxyethyl)-4-methyl-2-({1-[(1-methyl-1H-benzimidazol-2-yl)carbonyl]-piperidin-4-yl}methyl)-2H-indazol-5-carboxamide] | 28 | xxx (xxx > 100) | xxx (xxx > 100)
Cc1c(C(=O)NCC(F)(F)F)ccc2nn(CC3CN(C(=O)c4ccc(Oc5ccc(F)cc5)cc4)C3)cc12 [Example 160, 2-({1-[4-(4-fluorophenoxy)benzoyl]azetidin-3-yl}methyl)-4-methyl-N-(2,2,2-trifluoroethyl)-2H-indazol-5-carboxamide] | 82.9 | xxx (xxx > 100) | xxx (xxx > 100)
COCCNC(=O)c1cc2cn(CC3CN(C(=O)c4ccc(C5CC5)cc4)C3)nc2cc1C [Example 200, 2-{[1-(4-cyclopropylbenzoyl)azetidin-3-yl]methyl}-N-(2-methoxyethyl)-6-methyl-2H-indazol-5-carboxamide] | 15.1 | xxx (xxx > 100) | xxx (xxx > 100)
Cc1c(C(=O)NCCN2CCC(F)(F)C2)ccc2nn(CC3CCN(C(=O)c4ccc(S(F)(F)(F)(F)F)cc4)CC3)cc12 [Example 68, N-[2-(3,3-difluoropyrrolidin-1-yl)ethyl]-4-methyl-2-({1-[4-(pentafluoro-λ^6-sulphanyl)benzoyl]piperidin-4-yl}methyl)-2H-indazol-5-carboxamide] | 17.7 | xxx (xxx > 100) | xxx (xxx > 100)
Cc1cc2nn(CC3CN(C(=O)c4ccc(Cl)cc4)C3)cc2cc1C(=O)NCCSC(F)(F)F [Example 189, 2-{[1-(4-chlorobenzoyl)azetidin-3-yl]methyl}-6-methyl-N-{2-[(trifluoromethyl)sulphanyl]ethyl}-2H-indazol-5-carboxamide] | 33.6 | xxx (xxx > 100) | xxx (xxx > 100)
COCCNC(=O)c1ccc2nn(CC3CCN(C(=O)c4ccc(-c5ccc(C(C)(C)C#N)cc5)cc4)CC3)cc2c1C [Example 372, 2-[(1-{[4′-(1-cyano-1-methylethyl)biphenyl-4-yl]carbonyl}piperidin-4-yl)-methyl]-N-(2-methoxyethyl)-4-methyl-2H-indazol-5-carboxamide] | 7.29 | xxx (xxx > 100) | xxx (xxx > 100)

More lines, in order of falling IC50 [1], values ahead:

IC50 [1] [nM] | Selectivity hEP2/hEP4 [2] | Selectivity hEP2/hDP (human PGD receptor) | SMILES
460 | xx (xx: 10-100) | xx (xx: 10-100) | Cc1ccc(-c2ccc(C(=O)N3CCC(Cn4cc5c(C)c(C(=O)NCC(F)(F)F)ccc5n4)CC3)cc2)nc1 [Example 324, 4-methyl-2-({1-[4-(5-methylpyridin-2-yl)benzoyl]piperidin-4-yl}methyl)-N-(2,2,2-trifluoroethyl)-2H-indazol-5-carboxamide]
143 | xxx (xxx > 100) | xxx (xxx > 100) | Cc1c(C(=O)NCC2COCCO2)ccc2nn(CC3CN(C(=O)c4ccc(Cl)cc4)C3)cc12 (racemic) [Example 141, (+/−)-2-{[1-(4-chlorobenzoyl)azetidin-3-yl]methyl}-N-(1,4-dioxan-2-ylmethyl)-4-methyl-2H-indazol-5-carboxamide]
101 | xxx (xxx > 100) | xxx (xxx > 100) | Cc1c(C(=O)NCC(F)(F)F)ccc2nn(CC3CCN(C(=O)c4ccc(-c5ccc(C(F)(F)F)nc5)cc4)CC3)cc12 [Example 321, 4-methyl-N-(2,2,2-trifluoroethyl)-2-[(1-{4-[6-(trifluoromethyl)pyridin-3-yl]-benzoyl}piperidin-4-yl)methyl]-2H-indazol-5-carboxamide]
56.5 | xxx (xxx > 100) | xxx (xxx > 100) | Cc1c(C(=O)NCCSC(F)(F)F)ccc2nn(CC3CN(C(=O)c4ccc(C(F)(F)F)cc4F)C3)cc12 [Example 134, 2-({1-[2-fluoro-4-(trifluoromethyl)benzoyl]azetidin-3-yl}methyl)-4-methyl-N-{2-[(trifluoromethyl)sulphanyl]ethyl}-2H-indazol-5-carboxamide]
23.5 | xxx (xxx > 100) | xxx (xxx > 100) | Cc1c(C(=O)NCCS(C)(=O)=O)ccc2nn(CC3CCN(C(=O)c4ccc(-c5ccc(F)cc5)cc4)CC3)cc12 [Example 408, 2-({1-[(4′-fluorobiphenyl-4-yl)carbonyl]piperidin-4-yl}methyl)-N-(2-mesylethyl)-4-methyl-2H-indazol-5-carboxamide]
6.11 | xxx (xxx > 100) | xxx (xxx > 100) | COCCNC(=O)c1ccc2nn(CC3CCN(C(=O)c4ccc(-c5ccc(Cl)cc5C)cc4)CC3)cc2c1C [Example 371, 2-({1-[(4′-chloro-2′-methylbiphenyl-4-yl)carbonyl]piperidin-4-yl}methyl)-N-(2-methoxyethyl)-4-methyl-2H-indazol-5-carboxamide]
4.4 | xxx (xxx > 100) | xxx (xxx > 100) | Cc1c(C(=O)NCCOC(F)(F)F)ccc2nn(CC3CCN(C(=O)c4ccc(Oc5ccc(C(F)(F)F)cc5)cc4)CC3)cc12 [Example 110, 4-methyl-N-[2-(trifluoromethoxy)ethyl]-2-[(1-{4-[4-(trifluoro-methyl)phenoxy]-benzoyl}piperidin-4-yl)-methyl]-2H-indazol-5-carboxamide]
